These results are taken from patent publication US9073940B2, “Tricyclic pyrazol amine derivatives” (MERCK SERONO SA, priority 2009, dated 2015).

Assay [1] relates to AKT phosphorylation (p-AKT Ser 473) in Ramos B-lymphocyte cell line. Kind of assay: Mechanistic on-target cell assay: flow cytometry of AKT phosphorylation after anti-human IGM stimulation. The class given is cell-based. Here is the method: Mechanistic-On Target Cell Assay
The reaction was stopped by fixing the cells with Paraformaldehyde 4% (final) for 10 minutes at room temperature. Cells were washed once with Phosphate Buffer Saline (PBS), permabilized in PBS-Triton X-100 0.2% for 15 minutes at room temperature washed twice with PBS and once with PBS-4% serum. […] Cells were washed twice in PBS and resuspended in PBS. The cell suspension was passed on a FC500 flow cytometer (Beckman Coulter), gating on the IGM positive cells and measuring the AKT phosphorylation.
(In general: In flow cytometry, cells or beads pass a laser one at a time.)

The test system of assay [2] is 4 PI3K isoforms (Human recombinant GST-PI3K). Kind of assay: PI3K scintillation proximity assay, best IC50 obtained with the four isoforms (alpha, beta, delta, gamma). The note with it: best IC50 obtained with the four isoforms of PI3K; read-out: Best potency measured on the 4 PI3K isoforms. The class given is biochemical. For orientation: SPA uses beads or plates that emit light when radiolabelled molecules are held near them.

Where a name gives a salt, the structure may show the parent alone.

“3-(morpholin-4-ylcarbonyl)-1-[1-(2-morpholin-4-ylethyl)piperidin-3-yl]-1,4-dihydrothiochromeno[4,3-c]pyrazole 5,5-dioxide [Example 345]”: the values for the IC50 in assay [1] and in assay [2] were 68 nM and 16 nM, respectively.

On to `COCCN1CCC[C@H](n2nc(C(=O)N3CCOCC3)c3c2-c2ccccc2S(=O)(=O)C3)C1` (single isomer, unassigned) [Example 346, 1-[1-(2-methoxyethyl)piperidin-3-yl]-3-(morpholin-4-ylcarbonyl)-1,4-dihydrothiochromeno[4,3-c]pyrazole 5,5-dioxide], for which the values for the IC50 in assay [1] and in assay [2] were 128 nM and 40 nM, respectively.

As for `O=C(c1nn([C@H]2CCCN(CCN3CCOCC3)C2)c2c1CS(=O)(=O)c1c(F)cccc1-2)N1CCOCC1` (single isomer, unassigned) [Example 350, 6-fluoro-3-(morpholin-4-ylcarbonyl)-1-[1-(2-morpholin-4-ylethyl)piperidin-3-yl]-1,4-dihydrothiochromeno[4,3-c]pyrazole 5,5-dioxide hydrochloride salt], the results for the IC50 in assay [1] and in assay [2] were 40 nM and 16 nM, respectively.

As for `O=C(c1nn([C@H]2CCN(C3CCOCC3)C2)c2c1CS(=O)(=O)c1c(F)cccc1-2)N1CCOCC1` (single isomer, unassigned) [Example 355, 6-fluoro-3-(morpholin-4-ylcarbonyl)-1-[1-(tetrahydro-2H-pyran-4-yl)pyrrolidin-3-yl]-1,4-dihydrothiochromeno[4,3-c]pyrazole 5,5-dioxide hydrochloride salt], the IC50 in assay [1] turned out to be 94 nM; in assay [2], 52 nM.

With `O=C(c1nn([C@@H]2CCCN(C3CCOCC3)CC2)c2c1CS(=O)(=O)c1ccccc1-2)N1CCOCC1` (single isomer, unassigned) [Example 400], the IC50 turned out to be 888 nM in assay [1] and 104 nM in assay [2].

Regarding `O=C(c1nn([C@H]2CCCN(C3CCOCC3)CC2)c2c1CS(=O)(=O)c1ccccc1-2)N1CCOCC1` (single isomer, unassigned) [Example 401], the IC50 in assay [1] stood at 3630 nM; in assay [2], 340 nM.

`O=C(c1nn([C@@H]2CCN(C3CCOCC3)C2)c2c1CS(=O)(=O)c1ccccc1-2)N1CCOCC1` (single isomer, unassigned) [Example 403]: the IC50 stood at 214 nM in assay [1] and 45 nM in assay [2].

Consider `CC(C)(C)OC(=O)N1CCC(Cn2nc(C(=O)N3CCOCC3)c3c2-c2ccccc2S(=O)(=O)C3)CC1` [Example 43, tert-butyl 4-{[3-(morpholin-4-ylcarbonyl)-5,5-dioxidothiochromeno[4,3-c]pyrazol-1(4H)-yl]methyl}piperidine-1-carboxylate], for which, in assay [1], the IC50 was found to be 534 nM.

Regarding `O=C(c1nn(-c2ccc(CN3CCOCC3)cc2)c2c1CS(=O)(=O)c1ccccc1-2)N1CCOCC1` [Example 137], the IC50 in assay [1] came out at 300 nM.

Consider `O=C(c1nn([C@H]2CCCN(CCF)C2)c2c1CS(=O)(=O)c1ncccc1-2)N1CCOCC1` [Example 380], for which the IC50 in assay [1] is 320 nM.

As for `O=C(c1nn(C2CCCN(C3COC3)C2)c2c1CS(=O)(=O)c1ccccc1-2)N1CCOCC1` (centres unmarked) [Example 415, 3-(Morpholin-4-ylcarbonyl)-1-(1-oxetan-3-ylpiperidin-3-yl)-1,4-dihydrothiochromeno[4,3-c]pyrazole 5,5-dioxide], the IC50 in assay [2] was 67 nM.

Take `COCCN(C)Cc1ccc(-n2nc(C(=O)N3CCOCC3)c3c2-c2ccccc2S(=O)(=O)C3)cc1` [Example 426, 2-Methoxy-N-methyl-N-{4-[3-(morpholin-4-ylcarbonyl)-5,5-dioxidothiochromeno[4,3-c]pyrazol-1(4H)-yl]benzyl}ethanamine]: the IC50 in assay [2] amounted to 113 nM.

As to `O=C(c1nn(-c2ccc(CN3CC(F)C3)cc2)c2c1CS(=O)(=O)c1ccccc1-2)N1CCOCC1` [Example 430, 1-{4-[(3-Fluoroazetidin-1-yl)methyl]phenyl}-3-(morpholin-4-ylcarbonyl)-1,4-dihydrothiochromeno[4,3-c]pyrazole 5,5-dioxide], the IC50 in assay [2] turned out to be 229 nM.

In the case of `COCCNCc1ccc(-n2nc(C(=O)N3CCOCC3)c3c2-c2ccccc2S(=O)(=O)C3)cc1` [Example 431, 2-Methoxy-N-{4-[3-(morpholin-4-ylcarbonyl)-5,5-dioxidothiochromeno[4,3-c]pyrazol-1(4H)-yl]benzyl}ethanamine], the IC50 in assay [2] is 164 nM.

Take `CC1CN(Cc2ccc(-n3nc(C(=O)N4CCOCC4)c4c3-c3ccccc3S(=O)(=O)C4)cc2)CCO1` (centres unmarked) [Example 432, 1-{4-[(2-Methylmorpholin-4-yl)methyl]phenyl}-3-(morpholin-4-ylcarbonyl)-1,4-dihydrothiochromeno[4,3-c]pyrazole 5,5-dioxide]: in assay [2], the IC50 came to 105 nM.

On to `CC1CN(Cc2ccc(-n3nc(C(=O)N4CCOCC4)c4c3-c3ccccc3S(=O)(=O)C4)cc2)CC(C)O1` (centres unmarked) [Example 435, 1-{4-[(2,6-Dimethylmorpholin-4-yl)methyl]phenyl}-3-(morpholin-4-ylcarbonyl)-1,4-dihydrothiochromeno[4,3-c]pyrazole 5,5-dioxide], for which, in assay [2], the IC50 is 57 nM.

On to `O=C(c1nn(-c2ccc(CNC3CCOCC3)cc2)c2c1CS(=O)(=O)c1ccccc1-2)N1CCOCC1` [Example 436, N-{4-[3-(Morpholin-4-ylcarbonyl)-5,5-dioxidothiochromeno[4,3-c]pyrazol-1 (4H)-yl]benzyl}tetrahydro-2H-pyran-4-amine], for which the IC50 in assay [2] turned out to be 107 nM.

On to `CC1(C)CN(Cc2ccc(-n3nc(C(=O)N4CCOCC4)c4c3-c3ccccc3S(=O)(=O)C4)cc2)CCO1` [Example 437, 1-{4-[(2,2-Dimethylmorpholin-4-yl)methyl]phenyl}-3-(morpholin-4-ylcarbonyl)-1,4-dihydrothiochromeno[4,3-c]pyrazole 5,5-dioxide], for which the IC50 in assay [2] was determined as 120 nM.

As to `CNCc1ccc(-n2nc(C(=O)N3CCOCC3)c3c2-c2ccccc2S(=O)(=O)C3)cc1` [Example 449, N-Methyl-1-{4-[3-(morpholin-4-ylcarbonyl)-5,5-dioxidothiochromeno[4,3-c]pyrazol-1 (4H)-yl]phenyl}methanamine], the IC50 in assay [2] is 226 nM.

For `COc1ccc2c(c1)-c1c(c(C(=O)N3CCOCC3)nn1C1CCCN(CCN3CCOCC3)C1)CS2(=O)=O` (centres unmarked) [Example 453, 8-methoxy-3-(morpholin-4-ylcarbonyl)-1-[1-(2-morpholin-4-ylethyl)piperidin-3-yl]-1,4-dihydrothiochromeno[4,3-c]pyrazole 5,5-dioxide], in assay [2], the IC50 worked out at 28 nM.

In the case of `O=C(c1nn(-c2ccc(CNC3CCCOC3)cc2)c2c1CS(=O)(=O)c1ccccc1-2)N1CCOCC1` (centres unmarked) [Example 455, N-{4-[3-(Morpholin-4-ylcarbonyl)-5,5-dioxidothiochromeno[4,3-c]pyrazol-1(4H)-yl]benzyl}tetrahydro-2H-pyran-3-amine], the IC50 in assay [2] is 224 nM.

Take `O=C(c1nn(-c2ccc(CNC3CCOC3)cc2)c2c1CS(=O)(=O)c1ccccc1-2)N1CCOCC1` (centres unmarked) [Example 456, N-{4-[3-(Morpholin-4-ylcarbonyl)-5,5-dioxidothiochromeno[4,3-c]pyrazol-1(4H)-yl]benzyl}tetrahydrofuran-3-amine]: the IC50 in assay [2] turned out to be 156 nM.

Regarding `CC(C)(c1ccc(-n2nc(C(=O)N3CCOCC3)c3c2-c2ccccc2S(=O)(=O)C3)cc1)N1CCOCC1` [Example 457, 1-[4-(1-Methyl-1-morpholin-4-ylethyl)phenyl]-3-(morpholin-4-ylcarbonyl)-1,4-dihydrothiochromeno[4,3-c]pyrazole 5,5-dioxide], in assay [2], the IC50 turned out to be 584 nM.

In the case of `CN(C)CC(C)(C)c1ccc(-n2nc(C(=O)N3CCOCC3)c3c2-c2ccccc2S(=O)(=O)C3)cc1` [Example 458, N,N,2-Trimethyl-2-{4-[3-(morpholin-4-ylcarbonyl)-5,5-dioxidothiochromeno[4,3-c]pyrazol-1(4H)-yl]phenyl}propan-1-amine hydrochloride], in assay [2], the IC50 stood at 159 nM.

As for `CC(C)(CN1CCOCC1)c1ccc(-n2nc(C(=O)N3CCOCC3)c3c2-c2ccccc2S(=O)(=O)C3)cc1` [Example 461, 1-[4-(1,1-Dimethyl-2-morpholin-4-ylethyl)phenyl]-3-(morpholin-4-ylcarbonyl)-1,4-dihydrothiochromeno[4,3-c]pyrazole 5,5-dioxide], the IC50 in assay [2] came to 341 nM.

For `O=C(c1nn(-c2ccc(C3(CN4CCOCC4)CC3)cc2)c2c1CS(=O)(=O)c1ccccc1-2)N1CCOCC1` [Example 462, 3-(Morpholin-4-ylcarbonyl)-1-{4-[1-(morpholin-4-ylmethyl)cyclopropyl]phenyl}-1,4-dihydrothiochromeno[4,3-c]pyrazole 5,5-dioxide], the IC50 in assay [2] amounted to 995 nM.

For the molecule `O=C(c1nn([C@H]2CCCN(C3CCCNC3)C2)c2c1CS(=O)(=O)c1ccccc1-2)N1CCOCC1` (some centres unmarked) [Example 469], in assay [2], the IC50 worked out at 25 nM.

For the molecule `O=C(c1nn(C2CCCNC2)c2c1CS(=O)(=O)c1cc(OC(F)(F)F)ccc1-2)N1CCOCC1` (centres unmarked) [Example 481, 7-(Trifluoromethoxy)-3-(morpholin-4-ylcarbonyl)-1-piperidin-3-yl-1,4-dihydrothiochromeno[4,3-c]pyrazole 5,5-dioxide], the IC50 in assay [2] came to 10500 nM.

As for `O=C(c1nn(-c2ccccc2)c2c1CS(=O)(=O)c1nccn1-2)N1CCOCC1` [Example 485], in assay [2], the IC50 came out at 477 nM.

As to `CN1c2c(C(=O)N3CCOCC3)nn(-c3ccccc3)c2-c2ccccc2S1(=O)=O` [Example 488, 4-Methyl-3-(morpholin-4-ylcarbonyl)-1-phenyl-1,4-dihydropyrazolo[4,3-c][1,2]benzothiazine 5,5-dioxide], the IC50 in assay [2] came to 3460 nM.

`O=C(c1nn(-c2ccccc2)c2c1NS(=O)(=O)c1ccccc1-2)N1CCOCC1` [Example 489, 3-(Morpholin-4-ylcarbonyl)-1-phenyl-1,4-dihydropyrazolo[4,3-c][1,2]benzothiazine 5,5-dioxide]: the IC50 in assay [2] was 5500 nM.
